The term IC50 denotes the midpoint of a concentration-inhibition curve. A higher IC50 goes with lower potency.

Data set [1] in a line: Metabolic stability in human liver microsomes. The format is in vitro ADME. To be noted: LM Clint (intrinsic clearance); 1 μM test compound, 0.5 mg protein/mL microsome, 37° C., up to 60 min. In general terms: Microsomes from liver hold many membrane-bound enzymes, among them those of drug oxidation.
The target in data set [2] is T1, TNIK kinase [amino acid sequence (1-367), Invitrogen] (Homo sapiens, UniProt Q9UKE5).
T1 construct: purchased Invitrogen
The data set can be described thus: TNIK kinase inhibition assay (Z-lyte FRET-peptide). The format is biochemical. To be noted: 0.625 nM TNIK kinase, 2 μM Ser/Thr 7 peptide, 64 μM ATP, one hour at room temperature.

T1 sequence (Q9UKE5 1-367): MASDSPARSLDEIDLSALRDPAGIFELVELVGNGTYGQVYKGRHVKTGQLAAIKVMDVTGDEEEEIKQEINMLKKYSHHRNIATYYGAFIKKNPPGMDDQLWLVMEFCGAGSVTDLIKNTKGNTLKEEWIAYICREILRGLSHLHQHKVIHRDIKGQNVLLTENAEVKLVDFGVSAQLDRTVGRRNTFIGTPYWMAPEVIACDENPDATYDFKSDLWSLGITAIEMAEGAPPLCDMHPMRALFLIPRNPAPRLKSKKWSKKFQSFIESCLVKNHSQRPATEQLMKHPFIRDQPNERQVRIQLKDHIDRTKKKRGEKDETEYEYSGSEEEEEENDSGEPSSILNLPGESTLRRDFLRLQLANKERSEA

Take `[2H]C([2H])([2H])N1CCN(c2ccc(NC(=O)c3c[nH]c(-c4c(-c5ccc(F)cc5)ncn4C([2H])(C)C)n3)c(F)c2)CC1` [Compound 127, 2-[3-(1-deuterio-1-methyl-ethyl)-5-(4-fluorophenyl)imidazol-4-yl]-N-[2-fluoro-4-[4-(trideuteriomethyl)piperazin-1-yl]phenyl]-1H-imidazole-4-carboxamide]: in data set [1], the “Human Liver Microsome (μM/min/mg)” value is “++ (10-100 μM/min/mg as ++)”. In data set [2], this compound came in with an IC50 of 1 to 12 nM.
